Reference: patent US20120172228A1, “ALCOHOL ALKOXYLATES AS ADJUVANTS FOR AGROCHEMICAL FORMULATIONS” (SYNGENTA CROP PROTECTION, LLC, priority 2009, published 2012)

Tests used:
Format in all cases: in vivo
setaria viridis (SETVI) [1] = test: Adjuvant with herbicide pinoxaden on SETVI; conditions: pinoxaden 7.5 or 15 g/ha; butylene oxide adjuvants 0.2%, TEHP 0.5% v/v; 14 and 21 days
Protocol: (§1) In this example Sample 13 from Table 1 was compared to the oil adjuvant blend Turbocharge™. The herbicide fomesafen was applied to the weed species xanthium strumarium (XANST), setaria viridis (SETVI), abutilon theophrasti (ABUTH), and chenopodium album (CHEAL) at rates of 60 or 120 grams per hectare, using a laboratory track sprayer. Each experiment was replicated four times and the percentage damage to the weeds was assessed visually at time periods of 7, 14 and 21 days after application. Each adjuvant was applied at a rate of 0.5% of the volume of the spray water. Four effects were evaluated: pesticide rate (2 levels), adjuvant type (two levels), weed species (four levels) and days after application (three levels). […] The effect of each adjuvant was pulled out from the model and the least significant differences evaluated using a Student's t method. […]
(§2) In this example the responses of the adjuvants 13, 17, 19, 21, 22 and 23 were measured at an application rate of 0.2% of the volume of the spray solution used. […] In each case the experiments were replicated four times and the percentage damage to the weeds was assessed visually at time periods of 14 and 21 days after application.
(§3) In this example the response of butylene oxide sample 27 of Table 1 was measured at an application rate of 0.2% of the volume of the spray solution used. […]

avena fatua (AVEFA) = test: Adjuvant with herbicide pinoxaden on AVEFA; conditions: 14 and 21 days
Protocol: as §1, §2, §3

[2] = tested on: alopecurius myosuirides (ALOMY); test: Adjuvant with herbicide pinoxaden on ALOMY; conditions: 14 and 21 days
Protocol: as §1, §2, §3

[3] = tested on: lolium perenne (LOLPE), alopecurius myosuirides (ALOMY), avena fatua (AVEFA); test: Adjuvant with herbicide pinoxaden, mean across three weed species (Example 22); conditions: pinoxaden 7.5, 11.25 or 15 g/ha; Sample 13 0.2%, TEHP 0.5%; 14 and 21 days
Protocol: In this example Sample 13 from Table 1 was compared to the oil adjuvant blend Turbocharge™. The herbicide fomesafen was applied to the weed species xanthium strumarium (XANST), setaria viridis (SETVI), abutilon theophrasti (ABUTH), and chenopodium album (CHEAL) at rates of 60 or 120 grams per hectare, using a laboratory track sprayer. Each experiment was replicated four times and the percentage damage to the weeds was assessed visually at time periods of 7, 14 and 21 days after application. Each adjuvant was applied at a rate of 0.5% of the volume of the spray water. Four effects were evaluated: pesticide rate (2 levels), adjuvant type (two levels), weed species (four levels) and days after application (three levels). A standard simple linear model was constructed to judge the significance of these effects. […] A model was fitted using multiple linear regression using the statistics package JMP (SAS group). The effect of each adjuvant was pulled out from the model and the least significant differences evaluated using a Student's t method. […]
as §2, with “response” for “responses”, “butylene oxide adjuvant 13 of Table 1 was” for “adjuvants 13, 17, 19, 21, 22 and 23 were”

[4] = tested on: chenopodium album (CHEAL); test: Adjuvant with herbicide nicosulfuron on CHEAL; conditions: nicosulfuron 30 or 60 g/ha; adjuvants 0.2% of spray water; 14 and 21 days after application
Protocol: as §1
(§4) In this example the butylene oxide adjuvant Sample 13 of Table 1 was compared to the commercial oil adjuvant blend Atplus™411F. […] Each experiment was replicated four times and the percentage damage to the weeds was assessed visually at time periods of 14 and 21 days after application. […]
(§5) In this example the responses of the butylene oxide adjuvants 13, 17, 19, 21, 22 and 23 of Table 1 were measured at an application rate of 0.2% of the volume of the spray solution used. […]

setaria viridis (SETVI) [5] = test: Adjuvant with herbicide nicosulfuron on SETVI; conditions: nicosulfuron 30 or 60 g/ha; adjuvants 0.2% of spray water; 14 and 21 days after application
Protocol: as §1, §4, §5

[6] = tested on: digitaria sanguinalis (DIGSA); test: Adjuvant with herbicide nicosulfuron on DIGSA; conditions: nicosulfuron 30 or 60 g/ha; adjuvants 0.2% of spray water; 14 and 21 days after application
Protocol: as §1, §4, §5

[7] = pinoxaden 7.5, 11.25 or 15 g/ha, Sample 13 0.2%, TEHP 0.5%
[8] = pinoxaden 7.5 or 15 g/ha, butylene oxide adjuvants 0.2%, TEHP 0.5% v/v

SMILES: CCCCC(CC)COP(=O)(OCC(CC)CCCC)OCC(CC)CCCC (stereo not drawn) [TEHP, tris 2-ethylhexyl phosphate]
- mean efficacy (percentage damage to the weeds), SETVI (setaria viridis (SETVI) [1]): 77.5; ABC %
- mean efficacy (percentage damage to the weeds), AVEFA (avena fatua (AVEFA); [7]): 78.33; A %
- mean efficacy (percentage damage to the weeds), AVEFA (avena fatua (AVEFA); [8]): 73.75; AB %
- mean efficacy (percentage damage to the weeds), ALOMY [2, 7]: 43.33; A %
- mean efficacy (percentage damage to the weeds), ALOMY [2, 8]: 68.75; AB %
- mean efficacy (percentage damage to the weeds), All weeds [3]: 59.91; A %
- mean efficacy (percentage damage to the weeds), CHEAL [4]: 68.33; B %
- mean efficacy (percentage damage to the weeds), SETVI (setaria viridis (SETVI) [5]): 77.08; A %
- mean efficacy (percentage damage to the weeds), DIGSA [6]: 69.17; A %
